Experiments:
[1] = target: T1, DrPOMK (Danio rerio, UniProt Q5U3W1); assay: 1H NMR titration, Man H1 peak intensity; format: binding; conditions: read-out: dissociation constant
T1 construct: gene pomk; lumenal kinase domain, residues 49-347, secreted from Hi5 insect cells (baculovirus); N-terminal 6xHis-MBP removed by TEV for crystallization

[2] = target: T2, CoPOMK (Capsaspora owczarzaki, UniProt A0A0D2WXW5); assay: radiometric kinase assay, […] incorporation, C18 cartridge; format: biochemical; conditions: 20 μM GGM-MU, 100 μM ATP, 10 mM MnCl2, 50 mM HEPES pH 7.5, 20 °C, 30 min
T2 construct: gene CAOG_008172; residues 112-610, 6xHis-MBP fusion (psMBP2), secreted from Hi5 insect cells (baculovirus)
T2 sequence (A0A0D2WXW5 112-610): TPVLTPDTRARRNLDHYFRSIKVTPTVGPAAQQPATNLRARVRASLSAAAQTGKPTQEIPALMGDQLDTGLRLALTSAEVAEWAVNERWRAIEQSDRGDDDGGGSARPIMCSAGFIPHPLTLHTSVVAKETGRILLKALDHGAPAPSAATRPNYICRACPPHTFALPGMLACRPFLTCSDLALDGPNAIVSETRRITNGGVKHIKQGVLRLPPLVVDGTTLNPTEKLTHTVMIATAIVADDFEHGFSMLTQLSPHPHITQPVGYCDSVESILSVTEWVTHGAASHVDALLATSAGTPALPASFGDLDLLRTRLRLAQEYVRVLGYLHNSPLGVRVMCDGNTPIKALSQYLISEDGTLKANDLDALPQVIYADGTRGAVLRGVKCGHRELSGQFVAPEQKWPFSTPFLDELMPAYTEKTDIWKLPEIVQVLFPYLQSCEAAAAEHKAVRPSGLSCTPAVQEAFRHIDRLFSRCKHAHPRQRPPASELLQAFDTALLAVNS

[3] = target: T3, HsPOMK (Homo sapiens, UniProt Q9H5K3); assay: as above; format: biochemical; conditions: 20 μM GGM-MU, 100 μM ATP, 10 mM MnCl2, 50 mM HEPES pH 7.5, 20 °C, 30 min
T3 construct: gene POMK; lumenal kinase domain, residues 49-350, 6xHis-MBP fusion kept, secreted from Hi5 insect cells (baculovirus)
T3 sequence (Q9H5K3 49-350): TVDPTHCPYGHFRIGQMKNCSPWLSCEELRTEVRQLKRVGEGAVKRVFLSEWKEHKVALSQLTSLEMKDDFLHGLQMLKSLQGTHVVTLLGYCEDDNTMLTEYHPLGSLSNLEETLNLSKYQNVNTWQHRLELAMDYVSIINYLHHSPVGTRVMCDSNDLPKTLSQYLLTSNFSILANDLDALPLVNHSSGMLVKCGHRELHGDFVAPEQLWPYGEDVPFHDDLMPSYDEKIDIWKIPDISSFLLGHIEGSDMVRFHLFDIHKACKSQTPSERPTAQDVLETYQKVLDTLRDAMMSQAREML

T1 sequence (Q5U3W1 49-347): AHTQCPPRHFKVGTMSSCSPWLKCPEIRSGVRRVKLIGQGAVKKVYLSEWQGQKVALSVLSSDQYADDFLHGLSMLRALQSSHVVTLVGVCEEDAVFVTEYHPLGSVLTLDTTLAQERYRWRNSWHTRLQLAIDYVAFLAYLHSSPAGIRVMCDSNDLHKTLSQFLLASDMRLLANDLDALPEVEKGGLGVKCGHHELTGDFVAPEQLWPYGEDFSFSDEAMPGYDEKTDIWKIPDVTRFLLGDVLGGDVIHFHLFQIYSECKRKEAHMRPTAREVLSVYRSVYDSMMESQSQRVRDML

Kd [1]: 30.2 µM
radiometric kinase assay, 32P incorporation, C18 cartridge [2]: POMK homologues phosphorylates GGM-MU.
radiometric kinase assay, 32P incorporation, C18 cartridge [3]: POMK homologues phosphorylates GGM-MU.
Structure (SMILES): CC(=O)N[C@H]1[C@H](O[C@H]2[C@H](O)[C@@H](CO)O[C@@H](O[C@H]3[C@H](O)[C@H](O)[C@@H](Oc4ccc5c(C)cc(=O)oc5c4)O[C@@H]3CO)[C@@H]2NC(C)=O)O[C@H](CO)[C@H](O)[C@@H]1O [GGM-MU]
